Results published in patent publication US5503988A, “Process for producing a cholesterol-reduced substance” (priority 1992, dated 1996).
Where two headings read alike, the source gives them in different places.

How the values were obtained:
[1] = test system: epicholesterol dehydrogenase from Mycobacterium sp. EPI-40; type: biochemical
Description: With 0.1 ml of a 1 mM epicholesterol micelle solution containing 0.33% Triton X-100 are mixed 0.3 ml of 20 mM Tris-HCl buffer (pH 8.0) containing 1 mM dithiothreitol, 0.1 ml of a 10 mM NAD solution, and 0.01 ml of 50 mM magnesium chloride. 0.05 ml of the enzyme solution is added to the mixture, and the mixture is allowed to stand at 37° C. for 2 hours. 0.05 ml of chloroform is added and sterol is extracted to stop the reaction.
Cholestenone produced in the reaction mixture is determined with high performance liquid chromatography. A quantitative determination is made using an ODS column (Inertsil ODS-2 column, 4.6×250 mm, product of GL Science Co.), using methanol as the mobile phase. […] The enzyme activity which produces 1 μmol of cholestenone per minute is defined as 1 unit.

[2] = test system: cholesterol oxidase from Botrytis cinerea CO-33; type: biochemical
Description: To 0.1 ml of 1 mM cholesterol micelle solution containing 0,33% Triton X-100 is added 0.3 ml of 20 mM phosphate/citrate buffer (pH 6.0), 0.05 ml of the enzyme solution is added to the mixture, and the reaction is carried out at 37° C. for 10 minutes. 0.05 ml of chloroform is added thereto to extract sterol, stopping the reaction.
Cholestenone in the reaction mixture is determined with a TLC/FID IATROSCAN (product to Diayatron Co.). […] The enzyme activity which produces 1 μmol of cholestenone per minute is defined as 1 unit.

SMILES | residual activity (activity without inhibitor defined as 100%) ([1]; pH 8) | residual activity (activity without inhibitor defined as 100%) ([2]; pH 6) | residual activity (activity without inhibitor defined as 100%) ([1]; 1 mM inhibitor added, allowed to stand 2 hours at pH 8.0, 37° C.) | residual activity (activity without inhibitor defined as 100%) ([2]; 1 mM inhibitor added, reaction for 10 minutes at pH 6.0, 37° C.)
O=C(O)CN(CCN(CC(=O)O)CC(=O)O)CC(=O)O [ethylenediamine tetraacetate] | 71% | 93% | – | –
O=C(O)CI [iodoacetic acid] | 67% | 89% | – | –
O=S(=O)(O)c1cc[c]([Hg][Cl])cc1 [p-chloromercury phenylsulfonate] | – | – | 7% | 100%
